Patent publication US8389236B2, “Assay” (Otago Innovation Limited, priority 2005, dated 2013)

Tests used:
[1] = tested on: HIV-1 gag/pol −1 frameshift signal sequence (HIV-1 frameshift construct); assay: Dual fluorescent reporter (EGFP/DsRed) recoding assay in transiently transfected COS-7 cells, with Null 0 control construct; type: cell-based; details: for Minus 1 Frameshift Construct EGFP signal, Average / Null 0 Frameshift Construct EGFP signal, Average: 485 excitation 520-P emission; for Minus 1 Frameshift Construct DsRed signal, Average / Null 0 Frameshift Construct DsRed signal, Average: 525 excitation 600LP emission
Experimental: Mammalian COS-7 cells were grown, harvested, trypsinised, washed and diluted to 1×10^5 cells/ml all under standard conditions.
The diluted cells were then split into two equal portions. One portion was transiently transfected with the recoding construct, and other with the Null 0 frame control construct. Transient transfection was performed using 2 μL of FuGENE® 6 transfection reagent (Roche) and 500 ng of DNA for every mL of cells, in accordance with the manufacturing instructions.
Transfected cells were seeded in 24 well plates under standard conditions. Cycloheximide was added in triplicate at 50 nM and the plates were then incubated for 48 hours at 37° C.
The cells were washed 3 times with Phosphate Buffered Saline (PBS) to remove any traces of culture medium. 100 ul of Passive Lysis buffer (Promega) was added. The cells were frozen. The frozen cells were then thawed and transferred to a 96 well plate, and fluorescence intensity was read in the BMG PolarStar plate reader.
Plate reader settings were as follows:
Filters 485 excitation, 520-P emission
Filters 544 excitation, 590 emission
[[DsRed signal: HIV-1 frameshift construct]/[EGFP signal: HIV-1 frameshift construct]]/[[DsRed signal: Null 0 frameshift construct]/[EGFP signal: Null 0 frameshift construct]]
The diluted cells were then split into two equal portions. One portion was transfected, as described in Example 3, with the recoding construct, and other with the Null 0 frame control construct.
Cells were then seeded in 24 well plates under standard conditions. Anisomycin was added in triplicate at 50 nM and the plates were then incubated for 48 hours at 37° C.
The cells were prepared as described in examples 3 and 4.
DsRed signal at 525 excitation, 600LP emission
EGFP signal at 485 excitation, 520-P emission
Frameshift figures, shown in Table 5, were calculated using the formula shown in Example 3 using data from Tables 1, 2, 3 and 4.
Transfected cells were prepared as described in Example 5, and treated with 0 nM (no drug) 100 nM, 200 nM, 300 nM, 400 nM and 500 nM concentrations of anisomycin.
Incubation, plate reader setting and readings were as described in Example 5.
For the anisomycin titrations, the frameshift figures, shown in Table 10, were calculated using the formula shown in Example 3 using data from Tables 6, 7, 8 and 9.

[2] = tested on: HIV-1 gag/pol −1 frameshift signal sequence (HIV-1 frameshift construct); assay: Stably transfected dual fluorescent reporter recoding assay in Flp-In CV1 cells (−1 frame construct); type: cell-based; details: for DsRed/EGFP ratio / Percentage decrease in ratio / Minus 1 Frameshift Construct EGFP signal, Average / Minus 1 Frameshift Construct DsRed signal, Average: 120 hours; for DsRed/EGFP ratio / Percentage decrease in ratio: stable Flp-In CV1 cells; for DsRed/EGFP ratio: not normalised to Null 0, expressed as a percentage; for Percentage decrease in ratio: vs no drug; for Minus 1 Frameshift Construct EGFP signal, Average: 485 excitation 515 emission; for Minus 1 Frameshift Construct DsRed signal, Average: 535 excitation 590 emission
Experimental: The translational recoding construct described above was excised via Hind III and Not I restrictions sites and ligated into a Flp-In™ pcDNA5/FRT expression vector (Invitrogen Life Technologies) before being stably transformed into Flp-In™ CV1 cells (Invitrogen Life Technologies) according to the manufacturer's instructions.
Flp-In CV1 cells (CV1 cells), as described in Example 2, transfected with the −1 frame construct, and untransfected CV1 cells were grown, harvested, trypsinised, washed and diluted to 1×10^5 cells/ml all under standard conditions.
Cells were then seeded in 96 well plates under standard conditions. The plates were then incubated for 120 hours at 37° C.
The cells were washed 3 times with Phosphate Buffered Saline (PBS) to remove any traces of culture medium. 100 ul of Passive Lysis buffer (Promega) was added. The cells were frozen. The frozen cells were then thawed and fluorescence intensity was read in the Tecan Genios Pro plate reader.
Plate reader setting were as follows:
Filters 485 excitation, 515 emission
Filters 535 excitation, 590 emission
As a Null 0 frameshift construct was not used in this experiment ratios of the DsRed to EGFP signal were calculated to take into account the decrease in the EGFP signal with increasing drug concentrations.
The calculation was similar to example 3, with the counts averaged, the control cell counts removed before working out the ratio of the DsRed signal to the EGFP signal. Normalisation using a Null 0 frame construct could not be performed, with the results below being expressed as a percentage. The calculation was a follows: [[DsRed signal: HIV-1 frameshift construct]/[EGFP signal: HIV-1 frameshift construct]]

[3] = 50 nM, 48 hours, 485 excitation, 520-P emission
[4] = 50 nM, 48 hours, 544 excitation, 590 emission
[5] = 100 nM, COS-7, 525/600LP filters, vs no drugs

For `COc1ccc(C[C@H]2NC[C@H](O)[C@H]2OC(C)=O)cc1` [Anisomycin], the “decrease in frameshift from the original (no drug) value” ([1]; 50 nM, 48 hours, COS-7, 544/590 filters) was 5.3%, the Frameshift ([1]; 50 nM, 48 hours, COS-7, DsRed 544 excitation/590 emission, EGFP 485/520-P, normalised to Null 0 construct) was 5.64% and the “absolute change frameshift efficiency” value ([1]; 50 nM, 48 hours, COS-7, vs no drug control, 544/590 filters) was 0.32%. For the same compound, the “EGFP signal, HIV-1 frameshift construct, average” value [1, 3] was 32666 RFU, the “EGFP signal, HIV-1 frameshift construct, average minus control” value [1, 3] was 32336 RFU and the “EGFP signal, Null 0 frameshift construct, average” value [1, 3] was 56491 RFU. For the same compound, the “EGFP signal, Null 0 frameshift construct, average minus control” value [1, 3] was 56161 RFU, the “DsRed signal, HIV-1 frameshift construct, average” value [1, 4] was 1975 RFU and the “DsRed signal, HIV-1 frameshift construct, average minus control” value [1, 4] was 1891 RFU. The “DsRed signal, Null 0 frameshift construct, average” value [1, 4] was 58293 RFU, the “DsRed signal, Null 0 frameshift construct, average minus control” value [1, 4] was 58209 RFU and the “Minus 1 Frameshift Construct EGFP signal, Average” value ([1]; 100 nM) was 31923. For the same compound, the “Null 0 Frameshift Construct EGFP signal, Average” value ([1]; 100 nM) was 55732, the “Minus 1 Frameshift Construct DsRed signal, Average” value ([1]; 100 nM) was 3072 and the “Null 0 Frameshift Construct DsRed signal, Average” value ([1]; 100 nM) was 55345. The “Percentage decrease in frameshift” value [1, 5] was 1.39%, the “absolute change in frameshift efficiency” value [1, 5] was 0.11% and the “Percentage decrease in frameshift” value ([1]; 100 nM, COS-7, 525/600LP filters, vs no drugs, listed as anisomycin) was 1.4%. For the same compound, the Frameshift ([1]; 100 nM, COS-7, DsRed 525 excitation/600LP emission) was 7.89%, the Frameshift ([1]; 100 nM, COS-7, DsRed 525 excitation/600LP emission, listed as anisomycin) was 7.88% and the “Minus 1 Frameshift Construct EGFP signal, Average” value ([1]; 200 nM) was 37862. The “Null 0 Frameshift Construct EGFP signal, Average” value ([1]; 200 nM) was 51856, the “Minus 1 Frameshift Construct DsRed signal, Average” value ([1]; 200 nM) was 3555 and the “Null 0 Frameshift Construct DsRed signal, Average” value ([1]; 200 nM) was 50020. For the same compound, the “Percentage decrease in frameshift” value ([1]; 200 nM, COS-7, 525/600LP filters, vs no drugs) was −2.21%, the Frameshift ([1]; 200 nM, COS-7, DsRed 525 excitation/600LP emission) was 8.17% and the “Minus 1 Frameshift Construct EGFP signal, Average” value ([1]; 300 nM) was 32560. For the same compound, the “Null 0 Frameshift Construct EGFP signal, Average” value ([1]; 300 nM) was 38929, the “Minus 1 Frameshift Construct DsRed signal, Average” value ([1]; 300 nM) was 2995 and the “Null 0 Frameshift Construct DsRed signal, Average” value ([1]; 300 nM) was 36774. The “Percentage decrease in frameshift” value ([1]; 300 nM, COS-7, 525/600LP filters, vs no drugs) was 1.47%, the Frameshift ([1]; 300 nM, COS-7, DsRed 525 excitation/600LP emission) was 7.88% and the “Minus 1 Frameshift Construct EGFP signal, Average” value ([1]; 400 nM) was 18630. The “Null 0 Frameshift Construct EGFP signal, Average” value ([1]; 400 nM) was 18532, the “Minus 1 Frameshift Construct DsRed signal, Average” value ([1]; 400 nM) was 1804 and the “Null 0 Frameshift Construct DsRed signal, Average” value ([1]; 400 nM) was 16734. For the same compound, the “Percentage decrease in frameshift” value ([1]; 400 nM, COS-7, 525/600LP filters, vs no drugs) was 8.53%, the Frameshift ([1]; 400 nM, COS-7, DsRed 525 excitation/600LP emission) was 7.32% and the “Minus 1 Frameshift Construct EGFP signal, Average” value ([1]; 500 nM) was 9376. For the same compound, the “Null 0 Frameshift Construct EGFP signal, Average” value ([1]; 500 nM) was 8119, the “Minus 1 Frameshift Construct DsRed signal, Average” value ([1]; 500 nM) was 1121 and the “Null 0 Frameshift Construct DsRed signal, Average” value ([1]; 500 nM) was 7045. For the same compound, the “Percentage decrease in frameshift” value ([1]; 500 nM, COS-7, 525/600LP filters, vs no drugs) was 16.21%, the Frameshift ([1]; 500 nM, COS-7, DsRed 525 excitation/600LP emission) was 6.70% and the “effect on −1 frameshifting” value ([1]; result in words) was “antagonists to −1 frameshifting”. For the same compound, the DsRed/EGFP ratio ([2]; 50 nM) was 7.81%, the “Percentage decrease in ratio” value ([2]; 50 nM) was −1.47% and the “Minus 1 Frameshift Construct EGFP signal, Average” value ([2]; 50 nM) was 12588. The “Minus 1 Frameshift Construct DsRed signal, Average” value ([2]; 50 nM) was 1348, the DsRed/EGFP ratio ([2]; 100 nM) was 7.60% and the “Percentage decrease in ratio” value ([2]; 100 nM) was 1.17%. The “Minus 1 Frameshift Construct EGFP signal, Average” value ([2]; 100 nM) was 12188, the “Minus 1 Frameshift Construct DsRed signal, Average” value ([2]; 100 nM) was 1301 and the DsRed/EGFP ratio ([2]; 500 nM) was 1.44%. For the same compound, the “Percentage decrease in ratio” value ([2]; 500 nM) was 81.34%, the “Minus 1 Frameshift Construct EGFP signal, Average” value ([2]; 500 nM) was 8977 and the “Minus 1 Frameshift Construct DsRed signal, Average” value ([2]; 500 nM) was 795. The DsRed/EGFP ratio ([2]; 1000 nM) was −0.81%, the “Percentage decrease in ratio” value ([2]; 1000 nM) was 110.53% and the “Minus 1 Frameshift Construct EGFP signal, Average” value ([2]; 1000 nM) was 8386. The “Minus 1 Frameshift Construct DsRed signal, Average” value ([2]; 1000 nM) was 704, the DsRed/EGFP ratio ([2]; 2000 nM) was −3.13% and the “Percentage decrease in ratio” value ([2]; 2000 nM) was 140.70%. For the same compound, the “Minus 1 Frameshift Construct EGFP signal, Average” value ([2]; 2000 nM) was 7681, the “Minus 1 Frameshift Construct DsRed signal, Average” value ([2]; 2000 nM) was 641 and the “% decrease in ratio over concentration range” value ([2]; range between 50 nM and 2000 nM, stable cells, result in words) was “dose responsive effect”.
